The text below walks through data of the COVID Moonshot data (paper PMC7615835).

“And” between values parts separate entries of the source, which are not always exact repeats. Equal entries are not always repeated.

The assay deals with SARS-CoV-2 Main Protease (SARS-CoV-2) (UniProt P0DTD1).
In turn, `Cn1cncc1CN(C(=O)CC1(C(=O)Nc2cncc3ccccc23)CCOc2ccc(Cl)cc21)C1CC1` (stereo not drawn) had an IC50 of 6.1 µM. Regarding `CCC(C(=O)O)N1CCCC(NC(=O)c2ccc3ccccc3c2)C1` (stereo not drawn), the IC50 is over 99.5 µM. With `O=C(Cc1cc(Cl)cc(Nc2ccc3cc(Br)ccc3c2)c1)Nc1cncc2ccccc12` the figure was 2.1 µM; with `CN1CCN(c2cc(Cl)cc(CC(=O)Nc3cncc4ccccc34)c2)[C@H](c2ccccc2)C1` (stereo in doubt), 1.81 µM; with `O=C(Cc1cc(Cl)cc(Nc2cccc(OC(F)(F)F)c2)c1)Nc1cncc2ccccc12`, 1.93 µM. With `CN(C)C(=O)CN1Cc2ccc(Cl)cc2C(C(=O)Nc2cncc3ccccc23)C1` (stereo not drawn) the figure was 0.896 µM.

`O=C(NCCc1cccc(F)c1)C(c1cccnc1)N(C(=O)c1cocn1)c1cnc(C2CCC2)nc1` (stereo not drawn) had an IC50 of 69.1 µM. Molecule `Cc1ccncc1N1CCN(c2cccc(Cl)c2)C1=O` came in with an IC50 of 81.7 µM. With `O=C(Cn1cnc2ccccc21)Nc1cccc(Cl)c1` the figure was 87.2 µM; with `Cc1cc(C(=O)N2CCC(C3CCNC3)CC2)cc(S(=O)(=O)N(C)C)c1C` (stereo not drawn), over 99.5 µM; with `O=C(Cc1cc(Cl)cc(Nc2ccc(F)cc2I)c1)Nc1cncc2ccccc12`, 1.76 µM. The molecule `Cc1ccncc1NC(=O)N(C)c1cccc(Cl)c1` gave an IC50 of over 99.5 µM. Molecule `COc1ccc(Cl)c(Nc2cc(Cl)cc(CC(=O)Nc3cncc4ccccc34)c2)c1` yielded an IC50 of 1.7 µM.

For the molecule `CC(C)(C)c1ccc(N(C(=O)c2cn(C3COCC3=O)nn2)C(C(=O)NCCc2cccc(F)c2)c2cccnc2)cc1` (stereo not drawn), the IC50 came out at 19.5 µM. As for `Cc1cccc(CN2CCN(c3nc4ccccc4nc3C)CC2)c1`, the figure is over 99.5 µM. Molecule `Cn1cc(CN2Cc3ccc(Cl)cc3C(C(=O)Nc3cncc4ccc(F)cc34)C2)nn1` (stereo not drawn) displayed an IC50 of 0.914 µM. For the molecule `O=C(NCCc1cccc(F)c1)C(c1cccnc1)N(C(=O)c1cnc[nH]1)c1ccc(Cl)cc1` (stereo not drawn), the IC50 is over 99.5 µM. As for `CC(=O)NCCc1c[nH]c2c(CN3CCN(C(=O)CCl)CC3)cccc12`, the figure is 17.4 µM. As for `CC(C)(C)c1ccc(N(C(=O)c2nnn[nH]2)C(C(=O)NCCc2cccc(F)c2)c2cccnc2)cc1` (stereo not drawn), the figure is over 99.5 µM; as for `CS(=O)(=O)NCC1(C(=O)Nc2cncc3ccccc23)CCOc2ccc(Cl)cc21` (stereo not drawn), 3.87 µM. In the case of `CN(CCC#N)S(=O)(=O)N1Cc2ccc(Cl)cc2C2(CCN(c3cncc4ccccc34)C2=O)C1` (stereo not drawn), the IC50 was found to be 0.613 µM. In turn, `O=C(Cc1cc(Cl)cc(Nc2n[nH]cc2Br)c1)Nc1cncc2ccccc12` came in with an IC50 of 5.04 µM. With `C=CC(=O)N(c1ccc(C(F)(F)F)cc1)C(C(=O)NCCc1cccc(F)c1)c1cncc(C)c1` (stereo not drawn) the figure was 24.3 µM; with `CC1(C(=O)Nc2cncc3cc(S(C)(=O)=O)ccc23)CN(CC2CC2)S(=O)(=O)c2ccc(Cl)cc21` (stereo not drawn), 0.615 µM; with `Cc1ccc2c(c1)c(CCN)cn2-c1cc(Cl)cc(CC(=O)Nc2cncc3ccccc23)c1`, 1.63 µM. As for `O=C(Nc1cncc2ccccc12)C1CN(S(=O)(=O)N2CCOCC2)Cc2ccc(Cl)cc21` (stereo not drawn), the figure is 0.138 µM. In turn, `CCOC1CC2(C1)CC2N(C(=O)c1ccco1)C(C(=O)NCCc1cccc(F)c1)c1cccnc1` (stereo not drawn) came in with an IC50 of over 99.5 µM.

`CC(C)(C)c1ccc(N(C(=O)c2cc(CO)n[nH]2)C(C(=O)NCCc2cccc(F)c2)c2cccnc2)cc1` (stereo not drawn): the IC50 amounted to 18.8 µM. Molecule `Cc1cnoc1C(=O)N(c1ccc(C(C)(C)C)cc1)C(C(=O)NCCc1cccc(F)c1)c1cccnc1` (stereo not drawn) yielded an IC50 of over 99.5 µM.

The molecule `Cc1cn2c(CNC(=O)c3cnn4ccccc34)c(C)nc2s1` showed an IC50 of over 99.5 µM.

The molecule `CCOc1ccc(CNc2cc(Cl)cc(CC(=O)Nc3cncc4ccccc34)c2)cc1` displayed a 50% inhibitory concentration (IC50) of 3.41 µM. With `CC(NC(=O)Cc1ccc(-n2cnnn2)cc1)(C(=O)Nc1cncc2ccccc12)c1ccc(Cl)c(Cl)c1` (stereo not drawn) the figure was 3.42 µM and 6.3 µM; with `C=CC(=O)N(Cc1ccccc1Cl)C(C(=O)NC)c1cncc2ccccc12` (stereo not drawn), over 99.5 µM; with `O=C(Nc1cncc2cc(F)ccc12)[C@H]1CCS(=O)(=O)c2ccc(Cl)cc21` (stereo in doubt), 24.5 µM.

`O=C(c1cc(=O)[nH]c2ccccc12)N1CCN(c2cccc(Cl)c2)CC1` displayed an IC50 of 2.16 µM. With `CN(C)C(=O)c1ccc2c(NC(=O)Cc3cccc(Cl)c3)cncc2c1` the figure was 2.44 µM; with `O=C(Cc1cncc2ccccc12)N1CCOc2ccc(Cl)cc21`, 6.05 µM; with `O=C(Cc1cc(Cl)cc(Nc2nc3cc(Cl)ccc3s2)c1)Nc1cncc2ccccc12`, 2.04 µM. As for `COc1ccccc1N(C(=O)c1ccco1)C(C(=O)NCCc1cccc(F)c1)c1cccnc1` (stereo not drawn), the figure is over 99.5 µM. As for `O=C(Cc1cc(Cl)cc(NCc2ccc(OC(F)(F)F)cc2)c1)Nc1cncc2ccccc12`, the figure is 5.52 µM.

On to `N#CC1(CS(=O)(=O)N2Cc3ccc(Cl)cc3C3(CCN(c4cncc5ccccc45)C3=O)C2)CCC1` (stereo not drawn), for which the half-maximal inhibitory concentration (IC50) is 0.263 µM. `O=C(CCl)N1CCCN(S(=O)(=O)c2ccc(F)cc2)CC1` returned an IC50 of 44 µM. With `O=C(Cc1cncc2ccccc12)N(CCC1CCCCC1)c1cccc(Cl)c1` the figure was 2.11 µM; with `O=C(C[C@]1(C(=O)Nc2cncc3ccccc23)CCOc2ccc(Cl)cc21)N1CCN(C2CCOC2)CC1` (stereo in doubt), 1.99 µM. As for `O=C(CCl)N1CCCN(S(=O)(=O)Cc2ccccc2)CC1`, the 50% inhibitory concentration (IC50) was found to be 8.81 µM. With `CC(CCc1ccco1)NC(=O)Nc1cn(C)c(=O)c2ccccc12` (stereo not drawn) the figure was 44.5 µM; with `CCCNC(=O)CN1CC(C(=O)Nc2cncc3ccccc23)c2cc(Cl)ccc2C1=O` (stereo not drawn), 0.0864 µM and 0.174 µM; with `O=C(Nc1cncc2ccccc12)C(CO)c1ccc(Cl)c(Cl)c1` (stereo not drawn), 19.3 µM. `O=C(c1cc(=O)[nH]c2ccccc12)N1CCN(c2cccc(C(F)(F)F)c2)CC1` returned an IC50 of 3.8 µM. As for `COc1ccc2c(N)nn(C(=O)Cc3cccc(Cl)c3)c2c1`, the figure is over 99.5 µM. As for `COC1(C(=O)Nc2cncc3ccncc23)CCOc2ccc(Cl)cc21` (stereo not drawn), the figure is 0.832 µM; as for `CC(C)(C)c1ccc(N(C(=O)c2cocn2)C(C(=O)NCCc2nnn[nH]2)c2cccnc2)cc1` (stereo not drawn), over 99.5 µM.

Consider `COCCCNCC1(C(=O)Nc2cncc3ccccc23)CCOc2ccc(Cl)cc21` (stereo not drawn), for which the half-maximal inhibitory concentration (IC50) was determined as 11.4 µM. As for `CC(C)(C)c1ccc(N(C(=O)c2cnon2)C(C(=O)NCCc2cccc(F)c2)c2cccnc2)cc1` (stereo not drawn), the figure is 8.41 µM; as for `CCS(=O)(=O)c1ccc(CNS(=O)(=O)c2cnc(-c3ccccc3)s2)s1`, over 99.5 µM. Consider `CC(C)(C)c1ccc(N(C(=O)c2cncs2)C(C(=O)NCCc2cccc(F)c2)c2cccnc2)cc1` (stereo not drawn), for which the half-inhibitory concentration (IC50) stood at 24.2 µM. `CN(Cc1cccc2ccccc12)c1cc(Cl)cc(CC(=O)Nc2cncc3ccccc23)c1` gave an IC50 of 8.79 µM.

For the molecule `O=C(Cc1cccc(Cl)c1)Nc1cccnc1`, the IC50 came out at 53.7 µM. Molecule `Cc1ccncc1NC(=O)C1(c2cccc(Cl)c2)CC1` had an IC50 of over 99.5 µM. As for `Cc1cc(C(=O)Nc2cnc3nccn3c2)nn1-c1ccc(F)cc1`, the figure is over 99.5 µM; as for `COc1ccccc1CC(=O)Nc1cncc2ccccc12`, 35 µM; as for `O=C1CC(NC(=O)C2CCOc3ccc(Cl)cc32)CN1` (stereo not drawn), over 99.5 µM. On to `CC1(NC(=O)Cc2cccc(Cl)c2)CCNC1=O` (stereo not drawn), for which the IC50 was over 99.5 µM. With `CNC(=O)C1(N2Cc3ccc(Cl)cc3C3(CCN(c4cncc5ccccc45)C3=O)C2)CC1` (stereo not drawn) the figure was 0.0732 µM; with `O=C(NCCc1cccc(F)c1)C(c1cccnc1)N(C(=O)c1cnc[nH]1)C1CCCCCC1` (stereo not drawn), over 99 µM.

`CN(C)S(=O)(=O)N1CCN(C(=O)C2Nc3ccccc3S(=O)(=O)N2)CC1` (stereo not drawn) had an IC50 of over 99.5 µM.

`C=CC(=O)NCc1ccc(C(=O)N[C@H](CO)c2ccc(Br)c(F)c2)cc1` (stereo in doubt) yielded an IC50 of over 99.5 µM. As for `CC(NC(=O)c1nccc2cccnc12)c1ccc2[nH]c(=O)oc2c1` (stereo not drawn), the figure is over 99.5 µM. With `CN(c1cc(Cl)cc(CC(=O)Nc2cncc3ccccc23)c1)C1CCN(C(=O)OC(C)(C)C)CC1` the figure was 2.5 µM; with `O=C(NCCc1cccc(F)c1)C(c1cccnc1)N(C(=O)c1cnc[nH]1)C1CCCC2(CCC2)C1` (stereo not drawn), over 99 µM; with `O=C(NCCc1cccc(F)c1)C(c1cccnc1)N(C(=O)c1cocn1)c1ccc(N2CCCS2(=O)=O)cc1` (stereo not drawn), 27.8 µM. In turn, `CC(C)(C)OC(=O)NCCNC(=O)C(c1cccnc1)N(C(=O)c1cocn1)c1ccc(C(C)(C)C)cc1` (stereo not drawn) had an IC50 of 6.26 µM.

With `Cc1ccc(CC(=O)Nc2cncc3ccccc23)cc1`, the IC50 was 58.4 µM. The molecule `Cc1nn2c(CNc3ccc(Cn4cncn4)cc3)c(C)nc2s1` yielded an IC50 of over 99.5 µM. Molecule `CCC(=O)Nc1ccc(N(Cc2cscn2)C(=O)Cn2nnc3ccccc32)cc1` gave a 50% inhibitory concentration (IC50) of 25 µM. With `N#CC1(CS(=O)(=O)N2Cc3ccc(Cl)cc3C3(CCN(c4cncc5ccc(OCCCN6CCCC6)cc45)C3=O)C2)CC1` (stereo not drawn) the figure was 0.128 µM. As for `CCC(C)(C)CCN(Cc1ccsc1)C(=O)Cn1nnc2ccccc21`, the IC50 was found to be 78.5 µM. `N#CC(C(=O)Nc1cncc2ccccc12)c1ccc(Cl)c(Cl)c1` (stereo not drawn) yielded an IC50 of 0.803 µM. With `CN(C(=O)OC(C)(C)C)[C@H]1CCN(c2cc(Cl)cc(CC(=O)Nc3cncc4ccccc34)c2)C1` (stereo in doubt) the figure was 4.21 µM. For `COC(=O)/C=C/C(=O)N(C(=O)[C@@H]1CCOc2ccc(Cl)cc21)c1cncc2ccccc12` (stereo in doubt), the IC50 is 0.5 µM.

Consider `O=C(NNc1cc(O)nc2ncccc12)c1ccc2[nH]ccc2c1`, for which the concentration for half-maximal inhibition (IC50) was over 99.5 µM.

Turning to `O=C(NCCCc1nc(=O)[nH][nH]1)C1(c2ccc(F)cc2F)CCC1`, the IC50 was over 99.5 µM. As for `O=C(Cc1cc(Cl)cc(Nc2ccc(F)c(Br)c2)c1)Nc1cncc2ccccc12`, the figure is 1.97 µM; as for `CN(C(=O)c1ccco1)C(C(=O)NCCc1cccc(F)c1)c1cccnc1` (stereo not drawn), over 99.5 µM.

With `O=C(Cc1cc(Cl)cc(NCc2ccccc2Br)c1)Nc1cncc2ccccc12`, the IC50 stood at 3.5 µM. As for `Cc1ccncc1NC(=O)Cc1cc(Cl)cc(-c2ccc(C)c(F)c2F)c1`, the figure is 31.9 µM; as for `O=C(NCCc1cccc(F)c1)C(c1cccnc1)N(Cc1cc(C(F)(F)F)cs1)C(=O)c1ccco1` (stereo not drawn), over 99.5 µM. In turn, `CC(C)(C)c1ccc(N(C(=O)c2cc(=O)n3ncnc3[nH]2)C(C(=O)NCCc2cccc(F)c2)c2cccnc2)cc1` (stereo not drawn) came in with an IC50 of over 99.5 µM.
